Measurements published in publication PMC8715119, “Second-generation non-hematopoietic erythropoietin-derived peptide for neuroprotection” (Redox Biology, 2021).

Tested on: Bax
Assay: Immunoblot of Bax after hypoxia and re-oxygenation
Assay type: cell-based, mouse
Settings: HT-22 cells; reEPO 0.5 IU/ml, ML1-h3 1 ng/ml; normalized by β-Actin; n = 6
Method: PC12 or HT-22 cells were lysed in 100 mM Tris-Cl (pH 6.8) with 4% SDS. The lysates were loaded onto sodium dodecyl sulfate-polyacrylamide gel electrophoresis (SDS-PAGE) (8–10%), and the proteins were transferred onto the nitrocellulose membrane. The membrane was blocked with 0.1% TBST and 5% non-fat dry milk at 25°C for 30 min. Primary antibodies were diluted in 0.1% TBST and 3% bovine serum albumin (BSA). The primary antibodies included anti-pJAK2 (#3776, Cell Signaling Technology, USA), anti-JAK2 (#3230, Cell Signaling Technology, USA), anti-pSTAT5 (#9351, Cell Signaling Technology, USA), anti-STAT5 ([…], Cell Signaling Technology, USA), anti-pAKT (#9271, Cell Signaling Technology, USA), anti-AKT (#9272, Cell Signaling Technology, USA), anti-pERK (#9101, Cell Signaling Technology, USA) anti-ERK (#9102, Cell Signaling Technology, USA), anti-EPOR (#sc-365662, Santa Cruz Biotechnology, USA), anti-β-Actin (Santa Cruz Biotechnology, USA), anti-Bax (Santa Cruz Biotechnology, USA), anti-cleaved Casp3 (Cell Signaling Technology, USA), and anti-cleaved Parp1 (Cell Signaling Technology, USA).
The HT-22 cells were seeded onto 96-well or 6-well plates. The next day, HT-22 cells were placed inside a sealed air-tight container consisting of an anaeropack (Mitsubishi Gas Company, Tokyo, Japan), which can induce a hypoxic atmosphere by absorbing oxygen and generating carbon dioxide. […]

“reEPO: Recombinant human EPO (Epoetin-α, CJ HealthCare Corporation)” was tested, and the “Level of Bax under H/R” value was “efficiently reduced the levels of Bax”.
